Data taken from article PMC8955938, “c-Myc Protein Level Affected by Unsymmetrical Bisacridines Influences Apoptosis and Senescence Induced in HCT116 Colorectal and H460 Lung Cancer Cells” (International Journal of Molecular Sciences, 2022).

Columns and labels:
[1] = test system: HCT116 cells; experiment: Accelerated senescence (SA-β-gal), HCT116; type: cell-based, human; conditions: HCT116, IC90 doses, up to 120 h
Protocol: The accelerated senescence examination was based on the analysis of pH 6.0-dependent β-galactosidase (SA-β-gal) expression together with senescence-related morphology, such as enlarged and flattened cells. HCT116 and H460 cells were seeded in 60 mm plates containing microscope coverslips and treated with UAs for up to 120 h. […] The cells were then washed twice with PBS (pH 6.0) and incubated at pH 6.0 with X-gal (5-bromo-4-chloro-3-indolyl-β-D-[…], substrate for SA-β-gal) staining solution (1 mg/mL X-gal, 40 mmol/L citric acid/sodium phosphate, pH 6.0, 5 mmol/L potassium ferrocyanide, 5 mmol/L potassium ferricyanide, 150 mmol/L NaCl, 2 mmol/L MgCl2). Following overnight incubation at 37 °C, cells were washed twice with PBS and observed under a light microscopy (OLYMPUS BX60; magnification ×200).

[2] = test system: KRAS gene expression in HCT116 cells; experiment: RT-PCR KRAS expression in HCT116; type: cell-based, human; conditions: HCT116, IC90 doses, up to 120 h
Protocol: HCT116, H460, CCD 841 CoN and MRC-5 cells after treatment with UAs were collected, washed twice with ice-cold PBS and resuspended in […] of PBS. mRNA was isolated using High Pure RNA Isolation Kit according to the manufacturer’s instructions (Roche, Basel, Switzerland). Briefly, cells were lysed in lysis-binding buffer and transferred to a filter tube. Contaminating DNA was removed by 15 min incubation of the filter tube with DNase I solution. The filter tube was washed once with buffer I and twice with buffer II, and after centrifugation, total RNA was eluted using the elution buffer. RNA concentration was determined by NanoDrop One (Thermo Scientific); 1 µg of RNA was reverse transcribed using Transcriptor First Strand cDNA Synthesis Kit according to the manufacturer’s instructions (Roche) in 20 µL of reaction containing 1 µg of RNA, […] anchored-oligo(dT)18Primer, 8 mM MgCl2, 20 U of Protector RNase Inhibitor, deoxynucleotide mix (1 mM each) and 22 U of Transcriptor Reverse Transcriptase. The reverse transcription reaction was carried out for 30 min at 55 °C and stopped by heating to 85 °C for 5 min and placing on ice. The cDNA solution was stored at −20 °C until use. […] The relative expression level of MYC and KRAS was quantified using comparative method […]. The results were obtained from three independent experiments, each of which was analyzed at least twice.

Row | Structure (SMILES) | accelerated senescence (SA-β-gal blue staining) [1] | KRAS expression compared to untreated control [2]
1 | O=c1c2ccccc2n2cnc3ccc(NCCCN4CCN(CCCNc5c6ccccc6nc6cccc([N+](=O)[O-])c56)CC4)c1c32 [Compound C-2041] | a few cells with characteristic blue color were observed | –
2 | Cc1ccc([N+](=O)[O-])c2c(NCCCN(C)CCCNc3ccc4ncn5c6ccccc6c(=O)c3c45)c3ccccc3nc12 [Compound C-2053] | – | significant difference
